Entries after “also recorded” stand apart in the source; their conditions may differ.

This is an account of results in patent publication US20160015817A1, “METHODS OF TREATMENT OF PEDIATRIC SOLID TUMOR” (priority 2013, published 2016).

One data set has as its system relapsed RH4 xenografts. As to the kind of experiment: Relapsed RH4 xenograft model, re-treatment. Format: in vivo, mice. Conditions: re-treatment on day 52, 59 and 66, Taxol 30 mg/kg or Abraxane 50 mg/kg. The text has this:
Tumor growth was monitored.

A further data set has as its system RD xenograft. As to the kind of experiment: RD rhabdomyosarcoma xenograft model. Format: in vivo, mice. Conditions: Taxol 30 mg/kg weekly, Abraxane 50 mg/kg weekly. On the procedure:
Control mice received saline.
Tumor growth was assessed in RD xenograft model with paclitaxel/Abraxane treatment. In Abraxane treatment group, tumor-bearing mice received Abraxane (50 mg/kg, weekly) treatment. In paclitaxel treatment group, since tumor sizes are reaching the endpoint after 2-week paclitaxel treatment in paclitaxel group, those mice were randomized into two groups with 5 animals in each group on day 15: one group of animals continued receiving 30 mg/kg of paclitaxel and the other group received 50 mg/kg of Abraxane instead.

The subject of a further data set is cleaved caspase-3. In words: Immunohistochemistry of SK-N-BE(2) xenografts, apoptotic marker. The data set is classed as in vivo, mice. Particulars: different dosages of Abraxane; Taxol 20 mg/kg/weekly; end of study.
Data set [1] concerns phospho-histone H3. In words: Immunohistochemistry of SK-N-BE(2) xenografts, mitotic marker. The data set is classed as in vivo, mice. Conditions: different dosages of Abraxane; Taxol 20 mg/kg/weekly; end of study.
The subject of data set [2] is phospho-histone H3. In words: Immunohistochemistry of RH4 xenografts, mitotic marker. Format: in vivo, mice. Conditions: 48 hours after Abraxane 50 mg/kg iv or Taxol 30 mg/kg iv. From the text:
Similarly, RH4 xenografts were harvested and analyzed by IHC for phosphor-histone H3.

For a further data set, the system named is RH4 xenograft. As to the kind of experiment: RH4 rhabdomyosarcoma subcutaneous xenograft model. Conditions: for local relapse-free interval: RH4 model.
In data set [3] the test system is 143.98.2 osteosarcoma cells. The data set is classed as in vivo. Particulars: nab-paclitaxel 30 mg/kg i.v. days 1-5; gemcitabine 100 mg/kg i.p. twice weekly; p=0.031 combination vs nab-paclitaxel alone. On the procedure: (§1) Briefly, 5×10^6143.98.2 osteosarcoma cells or A673 Ewing's sarcoma cells were suspended in 100 μl PBS and implanted subcutaneously with 33% Matrigel in 5-6 week-old female athymic nu/nu mice. Tumor volume was calculated using the formula L·W2·(π/6), where L=the longest tumor diameter and W=the widest tumor diameter perpendicular to L. When tumors reached 200-300 mm^3, animals were treated with either saline control, nab-paclitaxel 30 mg/kg intravenously on days 1-5 for a single course, gemcitabine 100 mg/kg intraperitoneally twice weekly until death, or the combination of nab-paclitaxel and gemcitabine. Mice were sacrificed once tumors reached 10% body weight (˜2500 mm^3).
(§2) To perform statistical analysis, it was calculated that a sample of 10 mice per group would provide an 80% power to detect a difference in tumor size of 41%, Power was calculated at a significance level of 0.05 using a two-tailed, two sample Student's t-test assuming equal variance. GraphPad Prism 5 software was used to analyze survival by log-rank and tumor growth by two sample Student's t-test.

The subject of data set [4] is A673 Ewing's sarcoma cells. As to the kind of experiment: A673 Ewing sarcoma subcutaneous xenograft. Particulars: gemcitabine 100 mg/kg i.p. twice weekly with nab-paclitaxel. The data set is classed as in vivo, mice. The method, then:
as §1, §2

[5] abbreviates: dosing on days 1, 8 and 15, Taxol 30 mg/kg, Abraxane 50 mg/kg.

For the molecule `CC(=O)O[C@H]1C(=O)[C@@]2(C)[C@H]([C@H](OC(=O)c3ccccc3)[C@]3(O)C[C@H](OC(=O)[C@H](O)[C@@H](NC(=O)c4ccccc4)c4ccccc4)C(C)=C1C3(C)C)[C@]1(OC(C)=O)CO[C@@H]1C[C@@H]2O` [Taxol®, paclitaxel], the entries for the “response of tumors relapsed after Taxol (paclitaxel) treatment” value in the data set on relapsed RH4 xenografts and with relapsed RH4 xenografts (listed as paclitaxel) were “drug resistant against Taxol®” and “paclitaxel-resistant”, respectively. The “tumor growth (tumor volume)” value with RD xenograft is “slow the growth of RD tumors, but those tumors grew progressively with no signs of tumor regression; also recorded: significantly inhibited tumor growth”; in the data set with RH4 xenograft (Abraxane 50 mg/kg, Taxol 30 mg/kg i.v. weekly), “significantly inhibited RH4 tumor growth, with tumor regression observed after the 2nd dosage on day 8”. In the data set with cleaved caspase-3, the “apoptotic cell population (cleaved caspase-3 staining)” value is listed as “only slightly increased apoptosis in tumors”. Further, the “phospho-histone H3 positive cells” value is on record as “only slightly increased phospho-histone H3 positive cells” in the data set with phospho-histone H3 [1] and “Significant increased population of phospho-histone H3 positive cells” with phospho-histone H3 [2]. Moreover, in the data set on RH4 xenograft (7 animals per group), the “animals that developed relapsed tumors” value is on record as “all Taxol® treated animals demonstrated tumor relapse”. The local relapse-free interval was 13.6 ± 2.07 days in the data set on RH4 xenograft and 34 days in the data set on RH4 xenograft (listed as paclitaxel). Further, the mice that died in the data set with RH4 xenograft (Taxol 30 mg/kg group, Day 10) is 1 out of 7. Also, the “complete regression observed after day” value with RH4 xenograft (setting [5]) was > 31 days. Besides, the “time to tumor relapse after complete regression” value in the data set with RH4 xenograft (setting [5]) lay within 11 to 15 days.

`Nc1ccn([C@@H]2O[C@H](CO)[C@@H](O)C2(F)F)c(=O)n1` [gemcitabine]: in data set [3], the tumor growth result is “appeared additive”. Moreover, in data set [4], the “additive benefit of gemcitabine added to nab-paclitaxel” value was “no additive benefit”.
